The subject of series [1] is normal donor bone marrow mononuclear cells (BM-MNC). Put plainly: Colony forming unit assay of normal bone marrow. The method, then:
FIG. 2. […] Normal bone marrow mononuclear cells (BM-MNC) were purchased from StemCell Technologies. 30,000 cells were plated in methylcellulose with increasing concentrations of either gilteritinib, 1, or 2. Blast forming unit-erythroid (BFU-E) and colony forming unit-granulocyte (CFU-G) were counted after 14 days incubation. Assay was completed in triplicate with three independent blood donors. Data shown is cumulated from all independent experiments. Error bars show one standard deviation and p values compared to control were calculated using a Student's t-test. NS indicates an insignificant p value, * indicates p value≤0.05, ** indicates p value≤0.01, *** indicates p value≤0.001, **** indicates p value≤0.0001
Bone marrow mononuclear cells (BM-MNC) of healthy donors (n=3) were purchased from StemCell Technologies (Vancouver, Canada). Cells were plated in a 35 mm dish in triplicate with methylcellulose medium at a concentration previously determined to form approximately 100 total colonies, usually 30,000 cells/mL and containing the appropriate amount of drug. Dishes were incubated for 14-15 days and visually assessed for erythrocyte burst-forming units and granulocyte-macrophage colony-forming units.

The test system of series [2] is Molm-14 F691L cells stably expressing firefly luciferase. Put plainly: Circulating tumor model, Molm14 F691L luciferase. The series is classed as in vivo. Conditions: mice. The method, then:
FIG. 7. […] Molm14 F691L stably expressing FLuc9 were engrafted in mice through tail vein injection. Mice were imaged once every three days.
Molm-14 F691L cells stably expressing firefly luciferase were injected into the tail vein of NSG mice and tumor growth was monitored through bioluminescence.

The test system of a further series is Molm14 D835Y cells. Briefly: Cell viability assay (CellTiter GLO), Molm14 D835Y. Type of series: cell-based, human. The settings on record: 48 hours. The method, then: (§1) FIG. 1. […] Cells were treated with inhibitor at increasing log doses (0.1 nM-10 μM) for 48 hours. Cell viability was analyzed through CellTiter GLO. […] Cells were exposed to increasing amounts of each drug for 2 hours. GAPDH1 represents loading control for phospho-ERK and ERK blots. GAPDH2 represents loading control for phosphor-STAT5, STAT5, phospho-S6 and S6. Each experiment was completed in triplicate. Representative images are shown.
(§2) FIG. 5. […] Cells were dosed with inhibitor at increasing log doses (0.1 nM-10 μM) for 48 hours. Cell viability was analyzed through CellTiter GLO.
(§3) MV-4-11 and parental Molm-14 cells were a gift from Dr. Scott Kogan (University of California, San Francisco). HL60 and K562 cell lines were obtained from Charles Sawyers. […] Stable Ba/F3 lines were generated by retroviral infection as previously described (5). All cell lines were tested to be mycoplasma free and human cell lines were authenticated through STR profiling completed at the University of California, Berkeley.
(§4) Each triplicate was either dosed with drug or DMSO vehicle control. Drug dosing was completed at log doses ranging from 0.1 nM-10 μM. Cell viability was assessed after 48 hours using CellTiter GLO (Promega). Viability values were normalized to the vehicle control average. Numerical IC50 values were calculated in GraphPad Prism 7.
(In general: Cellular ATP, detected with luciferase, serves as a proxy for viable cell number.)

Another series concerns Molm14 F691L cells. Briefly: Cell viability assay (CellTiter GLO), Molm14 F691L. The series is classed as cell-based, human. The settings on record: 48 hours. The method, then: as §1, §2, §3, §4

Molecules are shown by their SMILES.

`CCc1nc(C(N)=O)c(Nc2ccc(N3CCC(N4CCN(C)CC4)CC3)c(OC)c2)nc1NC1CCOCC1` [gilteritinib, reference compound]: the “impact on CFU-G counts/growth” value in series [1] (equivalent multiples of Molm14 IC50, 14 days, three healthy donors) was “substantial impairment in BFU-E and CFU-G counts at 50× and 100×IC50”. Moreover, the “impact on BFU-E counts/growth” value in series [1] (human, 14 days) was “substantial impairment in BFU-E and CFU-G counts at 50× and 100×IC50”. The same compound registered a maximally tolerated dose in series [2] of 33 mg/kg.

On to `CC(C)(C)c1cc(NC(=O)Nc2ccc(-c3cn4c(n3)sc3cc(OCCN5CCOCC5)ccc34)cc2)no1` [quizartinib, reference compound], for which the “activity in cell viability assay (IC50, FIG. 1A/5B), in words” value in the series with Molm14 D835Y cells and with Molm14 F691L cells was “severely diminished activity” in each case.

(Values after patent publication US20260232684A1, “FLT3 INHIBITORS AND METHODS OF USING THE SAME” (BIOVENTURES, LLC, priority 2023, published 2026).)
